Results published in PubChem BioAssay (NCI).
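Values below derive from 48-hour exposures of cells grown in 96-well plates, with endpoints linearly interpolated between the two concentrations bracketing the appropriate inhibition level. GI50 = concentration required for 50% inhibition of growth. TGI denotes the concentration required for complete inhibition of growth.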

What was measured:
Assay in all cases: inhibition of tumour cell growth, NCI panel, 48 h
[1] = tested on: RPMI-8226 leukemia
[2] = tested on: MDA-MB-435
[3] = tested on: HCC-2998 colon
[4] = tested on: HT29 colon
[5] = tested on: OVCAR-3 ovarian
[6] = tested on: UACC-257 melanoma
[7] = tested on: HL-60(TB) leukemia
[8] = tested on: SF-539 CNS
[9] = tested on: M14 melanoma
[10] = tested on: A498 renal
[11] = tested on: SR leukemia
[12] = tested on: 786-0 renal
[13] = tested on: MOLT-4 leukemia
[14] = tested on: RXF 393 renal
[15] = tested on: DU-145 prostate
[16] = tested on: HS 578T breast
[17] = tested on: SK-OV-3 ovarian
[18] = tested on: SNB-75 CNS
[19] = tested on: PC-3 prostate
[20] = tested on: SF-268 CNS
[21] = tested on: SK-MEL-5 melanoma
[22] = tested on: IGROV1 ovarian
[23] = tested on: NCI/ADR-RES ovarian
[24] = tested on: TK-10 renal
[25] = tested on: U251 CNS
[26] = tested on: SK-MEL-28 melanoma
[27] = tested on: NCI-H226 lung
[28] = tested on: MDA-MB-231 breast
[29] = tested on: CAKI-1 renal
[30] = tested on: UACC-62 melanoma
[31] = tested on: KM12 colon
[32] = tested on: SF-295 CNS
[33] = tested on: COLO 205 colon
[34] = tested on: CCRF-CEM leukemia
[35] = tested on: MCF7 breast
[36] = tested on: MALME-3M melanoma
[37] = tested on: OVCAR-4 ovarian
[38] = tested on: HOP-62 NSCLC
[39] = tested on: LOX IMVI melanoma
[40] = tested on: UO-31 renal
[41] = tested on: NCI-H460 lung
[42] = tested on: MDA-N
[43] = tested on: SK-MEL-2 melanoma
[44] = tested on: OVCAR-5 ovarian
[45] = tested on: ACHN renal
[46] = tested on: HCT-15 colon
[47] = tested on: A549 NSCLC
[48] = tested on: OVCAR-8 ovarian
[49] = tested on: HOP-92 NSCLC
[50] = tested on: EKVX NSCLC
[51] = tested on: K-562 leukemia
[52] = tested on: SN12C renal
[53] = tested on: BT-549 breast
[54] = tested on: HCT-116 colon
[55] = tested on: NCI-H522 lung
[56] = tested on: T-47D breast
[57] = tested on: NCI-H23 lung
[58] = tested on: SNB-19 CNS
[59] = tested on: SW-620 colon

In the case of O=[N+]([O-])c1cc2oc(CSc3ccccc3)nc2cc1Cl, the TGI [1] is reported as > 100 µM, the TGI [2] is reported as > 100 µM and the TGI [3] is reported as 64.5 µM. For the same compound, the TGI [4] was > 100 µM, the TGI [5] was 73.9 µM and the TGI [6] was 82.2 µM. For the same compound, the TGI [7] was > 100 µM, the TGI [8] was > 100 µM and the TGI [9] was > 100 µM. For the same compound, the TGI [10] was 59.2 µM, the TGI [11] was > 100 µM and the TGI [12] was > 100 µM. The TGI [13] was > 100 µM, the TGI [14] was 93 µM and the TGI [15] was > 100 µM. For the same compound, the TGI [16] was > 100 µM, the TGI [17] was 78.7 µM and the TGI [18] was 67.5 µM. The TGI [19] was > 100 µM, the TGI [20] was > 100 µM and the TGI [21] was 33.7 µM. For the same compound, the TGI [22] was > 100 µM, the TGI [23] was 40 µM and the TGI [24] was > 100 µM. For the same compound, the TGI [25] was 66.6 µM, the TGI [26] was > 100 µM and the TGI [27] was 91.1 µM. The TGI [28] was 76.9 µM, the TGI [29] was > 100 µM and the TGI [30] was > 100 µM. For the same compound, the TGI [31] was > 100 µM, the TGI [32] was 93.9 µM and the TGI [33] was 44.9 µM. For the same compound, the TGI [34] was > 100 µM, the TGI [35] was > 100 µM and the TGI [36] was > 100 µM. The TGI [37] was > 100 µM, the TGI [38] was > 100 µM and the TGI [39] was > 100 µM. For the same compound, the TGI [40] was 87.3 µM, the TGI [41] was 81.2 µM and the TGI [42] was > 100 µM. For the same compound, the TGI [43] was 51.4 µM, the TGI [44] was > 100 µM and the TGI [45] was > 100 µM. For the same compound, the TGI [46] was > 100 µM, the TGI [47] was > 100 µM and the TGI [48] was > 100 µM. For the same compound, the TGI [49] was > 100 µM, the TGI [50] was > 100 µM and the TGI [51] was > 100 µM. For the same compound, the TGI [52] was > 100 µM, the TGI [53] was 80.8 µM and the TGI [54] was > 100 µM. For the same compound, the TGI [55] was > 100 µM, the TGI [56] was > 100 µM and the TGI [57] was 88.6 µM. For the same compound, the TGI [58] was > 100 µM and the TGI [59] was > 100 µM.

For CN(Cc1cnc2nc(N)nc(N)c2n1)c1ccc(C(=O)N[C@@H](CCS(=O)(=O)O)C(=O)O)cc1, the TGI [1] was > 100 µM, the TGI [2] was > 100 µM and the TGI [3] was > 100 µM. The TGI [4] was > 100 µM, the TGI [5] was > 100 µM and the TGI [6] was > 100 µM. The TGI [8] was > 100 µM, the TGI [9] was > 100 µM and the TGI [10] was > 100 µM. The TGI [11] was > 100 µM, the GI50 [12] was 0.0955 µM and the TGI [12] was > 100 µM. The TGI [13] was > 100 µM, the TGI [14] was 1.44 µM and the GI50 [15] was 1.31 µM. For the same compound, the TGI [15] was > 100 µM, the TGI [16] was > 100 µM and the TGI [17] was > 100 µM. For the same compound, the GI50 [18] was 18.2 µM, the TGI [18] was > 100 µM and the TGI [19] was > 100 µM. For the same compound, the TGI [20] was > 100 µM, the TGI [21] was > 100 µM and the TGI [22] was > 100 µM. For the same compound, the TGI [23] was > 100 µM, the TGI [24] was > 100 µM and the TGI [25] was > 100 µM. The TGI [26] was > 100 µM, the TGI [27] was > 100 µM and the TGI [28] was > 100 µM. The TGI [29] was > 100 µM, the TGI [30] was > 100 µM and the TGI [31] was > 100 µM. The TGI [32] was > 100 µM, the TGI [33] was > 100 µM and the TGI [34] was > 100 µM. The TGI [35] was > 100 µM, the TGI [36] was > 100 µM and the TGI [37] was > 100 µM. For the same compound, the TGI [38] was > 100 µM, the TGI [39] was > 100 µM and the TGI [40] was > 100 µM. For the same compound, the TGI [41] was > 100 µM, the TGI [42] was > 100 µM and the TGI [43] was > 100 µM. The TGI [45] was > 100 µM, the TGI [46] was > 100 µM and the TGI [47] was > 100 µM. The TGI [48] was > 55.3 µM, the TGI [49] was > 100 µM and the TGI [50] was > 100 µM. The TGI [51] was > 100 µM, the TGI [52] was > 100 µM and the TGI [53] was > 100 µM. For the same compound, the TGI [55] was > 100 µM, the TGI [56] was > 100 µM and the TGI [57] was > 100 µM. For the same compound, the TGI [58] was > 100 µM and the TGI [59] was > 100 µM.

In the case of COc1cc(Nc2ccc3c(c2)CCC3)nc(OC)n1, the TGI [1] is reported as 40.9 µM, the TGI [2] is reported as > 100 µM and the TGI [3] is reported as 61.6 µM. The TGI [4] was 51.4 µM, the TGI [5] was > 100 µM and the TGI [6] was > 100 µM. The TGI [7] was > 100 µM, the TGI [8] was > 100 µM and the TGI [9] was > 100 µM. The TGI [10] was > 100 µM, the TGI [11] was 77.8 µM and the TGI [12] was > 100 µM. For the same compound, the TGI [15] was > 100 µM, the TGI [16] was 42.6 µM and the TGI [17] was > 100 µM. For the same compound, the TGI [18] was 53.5 µM, the TGI [19] was > 100 µM and the TGI [20] was > 100 µM. The TGI [21] was 62.3 µM, the TGI [22] was > 100 µM and the TGI [23] was 65.5 µM. The TGI [24] was > 100 µM, the TGI [25] was > 100 µM and the TGI [26] was > 100 µM. For the same compound, the TGI [27] was > 100 µM, the TGI [28] was > 100 µM and the TGI [29] was > 100 µM. For the same compound, the TGI [30] was > 100 µM, the TGI [31] was 91.9 µM and the TGI [32] was > 100 µM. The TGI [33] was > 100 µM, the TGI [34] was > 100 µM and the TGI [35] was > 100 µM. The TGI [36] was > 100 µM, the TGI [37] was > 100 µM and the TGI [38] was > 100 µM. For the same compound, the TGI [39] was > 100 µM, the TGI [41] was > 100 µM and the TGI [42] was > 100 µM. For the same compound, the TGI [43] was > 100 µM, the TGI [44] was > 100 µM and the TGI [45] was 73.7 µM. For the same compound, the TGI [46] was > 100 µM, the TGI [47] was > 100 µM and the TGI [48] was > 100 µM. The TGI [49] was > 100 µM, the TGI [50] was > 100 µM and the TGI [52] was > 100 µM. For the same compound, the TGI [53] was > 100 µM, the TGI [54] was > 100 µM and the TGI [55] was 84.5 µM. For the same compound, the TGI [56] was > 100 µM, the TGI [57] was > 100 µM and the TGI [58] was > 100 µM. For the same compound, the TGI [59] was > 100 µM.
